Assay results taken from patent publication US20230150974A1 (Foghorn Therapeutics Inc., priority 2020, published 2023).

Experiments:
HiBit-BRG1 = molecular target: T1, HiBit-BRG1 (Homo sapiens, UniProt P51532); experiment: HiBit-BRG1 cell-based degradation assay (Nano-Glo HiBiT Lytic Detection); conditions: HeLa cells expressing HiBit-BRG1 and LgBit, 24 h; for DC50: read-out: BRG1 HiBit Degradation IC50; for Dmax: read-out: BRG1 HiBit Degradation Maximum (%)
T1 construct: expressed in transfected cells
T1 sequence (P51532 whole entry): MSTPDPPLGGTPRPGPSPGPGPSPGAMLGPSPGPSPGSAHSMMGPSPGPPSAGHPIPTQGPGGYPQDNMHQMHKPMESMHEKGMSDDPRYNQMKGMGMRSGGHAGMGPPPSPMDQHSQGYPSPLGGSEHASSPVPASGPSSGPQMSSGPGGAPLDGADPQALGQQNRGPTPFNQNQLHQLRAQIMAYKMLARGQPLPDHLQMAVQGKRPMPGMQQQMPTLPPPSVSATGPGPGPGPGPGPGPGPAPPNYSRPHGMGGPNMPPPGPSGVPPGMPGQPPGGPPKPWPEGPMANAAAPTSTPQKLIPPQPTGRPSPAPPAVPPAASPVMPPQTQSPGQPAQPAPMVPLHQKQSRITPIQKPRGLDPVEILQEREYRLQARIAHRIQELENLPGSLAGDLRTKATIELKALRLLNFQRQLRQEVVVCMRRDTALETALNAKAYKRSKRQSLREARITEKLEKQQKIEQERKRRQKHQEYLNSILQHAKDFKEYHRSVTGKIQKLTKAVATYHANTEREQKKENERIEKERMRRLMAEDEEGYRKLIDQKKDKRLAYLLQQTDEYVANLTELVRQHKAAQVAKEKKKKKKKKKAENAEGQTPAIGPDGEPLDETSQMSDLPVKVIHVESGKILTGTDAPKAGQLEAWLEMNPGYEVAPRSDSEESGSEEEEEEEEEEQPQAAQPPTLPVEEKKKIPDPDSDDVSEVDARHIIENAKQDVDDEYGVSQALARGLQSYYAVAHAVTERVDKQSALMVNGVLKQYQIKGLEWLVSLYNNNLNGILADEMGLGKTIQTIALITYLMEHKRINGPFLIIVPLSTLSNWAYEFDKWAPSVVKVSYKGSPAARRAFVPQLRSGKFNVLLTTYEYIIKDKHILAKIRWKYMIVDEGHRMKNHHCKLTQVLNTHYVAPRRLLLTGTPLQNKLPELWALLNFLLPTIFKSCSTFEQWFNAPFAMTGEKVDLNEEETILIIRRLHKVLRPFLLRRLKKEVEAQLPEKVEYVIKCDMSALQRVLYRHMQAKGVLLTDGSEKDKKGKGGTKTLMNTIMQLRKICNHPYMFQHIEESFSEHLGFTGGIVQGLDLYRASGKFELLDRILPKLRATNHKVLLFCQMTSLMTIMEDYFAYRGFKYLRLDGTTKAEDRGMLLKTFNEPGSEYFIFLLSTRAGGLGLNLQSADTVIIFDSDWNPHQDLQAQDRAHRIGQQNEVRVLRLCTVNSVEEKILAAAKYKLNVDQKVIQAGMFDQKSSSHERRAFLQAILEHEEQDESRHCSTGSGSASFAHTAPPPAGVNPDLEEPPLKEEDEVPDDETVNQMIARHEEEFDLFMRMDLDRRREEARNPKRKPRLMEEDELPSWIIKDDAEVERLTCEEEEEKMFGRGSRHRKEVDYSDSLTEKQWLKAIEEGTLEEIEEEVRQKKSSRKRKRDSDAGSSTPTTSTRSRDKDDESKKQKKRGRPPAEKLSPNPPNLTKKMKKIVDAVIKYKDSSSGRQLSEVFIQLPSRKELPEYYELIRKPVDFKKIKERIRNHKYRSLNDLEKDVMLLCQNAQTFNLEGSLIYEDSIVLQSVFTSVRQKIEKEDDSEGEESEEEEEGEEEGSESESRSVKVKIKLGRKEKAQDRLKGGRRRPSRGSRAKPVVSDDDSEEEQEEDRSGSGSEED
Method: (§1) Procedure: A stable HeLa cell line expressing HiBiT-BRM was generated. On day 0, 5000 cells were seeded in 40 μL of media into each well of 384-well cell culture plates. […] Subsequently plates were incubated for 24 h in a standard tissue culture incubator and equilibrated at room temperature for 15 minutes. Nano-Glo HiBiT Lytic Detection System (Promega N3050) reagent was freshly prepared and 20 ul was added to each well. Upon addition of this LgBit-containing reagent, the HiBiT and LgBiT proteins associate to form the luminescent NanoBiT luciferase. The plates were shaken for 10 minutes at room temperature and the bioluminescence read using an EnVision plate reader (PerkinElmer).
For measurement of BRG1 degradation, a stable HeLa cell line expressing HiBit-BRG1 and LgBit was generated. The same protocol as above was then followed.
(§2) The degradation % was calculated using the following formula: % degradation=100%−100%×(LumSample−LumLC)/(LumHC−LumLC). DMSO treated cells are employed as High Control (HC) and 2 μM of a known BRM/BRG1 degrader standard treated cells are employed as Low Control (LC).

HiBiT-BRM = molecular target: T2, HiBiT-BRM (Homo sapiens, UniProt P51531); experiment: HiBiT-BRM cell-based degradation assay (Nano-Glo HiBiT Lytic Detection); conditions: HeLa cells expressing HiBiT-BRM, 24 h; for DC50: read-out: BRM HiBit Degradation IC50
T2 construct: expressed in transfected cells
T2 sequence (P51531 whole entry): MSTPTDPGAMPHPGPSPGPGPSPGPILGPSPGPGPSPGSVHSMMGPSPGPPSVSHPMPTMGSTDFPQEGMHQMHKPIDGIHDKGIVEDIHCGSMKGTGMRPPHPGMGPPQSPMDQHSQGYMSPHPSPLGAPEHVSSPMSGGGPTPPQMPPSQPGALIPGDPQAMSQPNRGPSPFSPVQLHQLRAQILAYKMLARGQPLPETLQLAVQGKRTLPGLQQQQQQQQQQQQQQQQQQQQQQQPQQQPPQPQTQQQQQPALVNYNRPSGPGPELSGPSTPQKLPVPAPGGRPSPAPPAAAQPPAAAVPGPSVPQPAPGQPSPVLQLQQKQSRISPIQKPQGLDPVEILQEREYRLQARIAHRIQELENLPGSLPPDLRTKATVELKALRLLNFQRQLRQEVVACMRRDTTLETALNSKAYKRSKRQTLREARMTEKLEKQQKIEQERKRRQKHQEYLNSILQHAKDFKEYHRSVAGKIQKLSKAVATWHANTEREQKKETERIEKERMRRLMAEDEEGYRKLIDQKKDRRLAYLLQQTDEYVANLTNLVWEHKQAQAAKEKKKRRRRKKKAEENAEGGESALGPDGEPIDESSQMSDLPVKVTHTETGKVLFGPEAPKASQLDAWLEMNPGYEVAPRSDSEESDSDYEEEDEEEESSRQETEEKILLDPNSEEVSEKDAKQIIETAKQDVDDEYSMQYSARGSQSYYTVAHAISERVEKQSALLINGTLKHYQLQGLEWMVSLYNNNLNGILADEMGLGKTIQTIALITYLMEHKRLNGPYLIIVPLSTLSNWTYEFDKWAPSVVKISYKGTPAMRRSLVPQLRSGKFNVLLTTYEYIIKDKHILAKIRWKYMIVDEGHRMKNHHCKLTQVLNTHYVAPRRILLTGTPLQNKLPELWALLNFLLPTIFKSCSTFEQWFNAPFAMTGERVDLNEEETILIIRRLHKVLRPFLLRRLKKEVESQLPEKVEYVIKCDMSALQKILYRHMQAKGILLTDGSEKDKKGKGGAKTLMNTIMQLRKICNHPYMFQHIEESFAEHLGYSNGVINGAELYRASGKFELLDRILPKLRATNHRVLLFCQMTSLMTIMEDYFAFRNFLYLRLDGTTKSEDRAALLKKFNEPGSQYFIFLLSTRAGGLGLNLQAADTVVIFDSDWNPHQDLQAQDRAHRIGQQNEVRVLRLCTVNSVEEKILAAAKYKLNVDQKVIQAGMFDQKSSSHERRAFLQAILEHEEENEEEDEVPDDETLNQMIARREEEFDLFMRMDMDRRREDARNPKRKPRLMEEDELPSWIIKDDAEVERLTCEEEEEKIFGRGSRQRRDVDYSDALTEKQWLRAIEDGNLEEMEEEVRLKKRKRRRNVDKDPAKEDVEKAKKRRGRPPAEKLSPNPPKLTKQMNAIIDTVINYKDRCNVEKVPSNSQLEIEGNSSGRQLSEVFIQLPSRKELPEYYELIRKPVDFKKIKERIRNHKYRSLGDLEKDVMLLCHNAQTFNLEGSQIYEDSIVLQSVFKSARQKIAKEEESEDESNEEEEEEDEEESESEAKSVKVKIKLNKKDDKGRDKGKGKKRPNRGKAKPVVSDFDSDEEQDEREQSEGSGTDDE
Method: as §1, §2

| Compound | DC50 (HiBit-BRG1) [µM] | Dmax (HiBit-BRG1) [%] | BRM HiBit Degradation Maximum (%) (HiBiT-BRM) | DC50 (HiBiT-BRM) [µM] |
| --- | --- | --- | --- | --- |
| Nc1nnc(-c2ccccc2O)cc1OCCc1ccc(C(=O)NCCCCCCCCCCC(=O)NCc2ccc(S(=O)(=O)Nc3cccc4c(Cl)c[nH]c34)cc2)cc1 [Compound 11, 11-[[4-(2-[[3-amino-6-(2-hydroxyphenyl)pyridazin-4-yl]oxy]ethyl)phenyl]formamido]-N-([4-[(3-chloro-1H-indol-7-yl)sulfamoyl]phenyl]methyl)undecanamide] | > 1 | < 50 | C (“C” indicates maximum degradation <50%) | > 1 |
| Nc1nnc(-c2ccccc2O)cc1OCCc1ccc(C(=O)NCCCCCCCCCC(=O)NCc2ccc(S(=O)(=O)Nc3cccc4c(Cl)c[nH]c34)cc2)cc1 [Compound 12, 10-[[4-(2-[[3-amino-6-(2-hydroxyphenyl)pyridazin-4-yl]oxy]ethyl)phenyl]formamido]-N-([4-[(3-chloro-1H-indol-7-yl)sulfamoyl]phenyl]methyl)decanamide] | > 1 | < 50 | C (“C” indicates maximum degradation <50%) | > 1 |
| Nc1nnc(-c2ccccc2O)cc1OCCc1ccc(C(=O)NCCCCCCC(=O)NCc2ccc(S(=O)(=O)Nc3cccc4c(Cl)c[nH]c34)cc2)cc1 [Compound 13, 7-[[4-(2-[[3-amino-6-(2-hydroxyphenyl)pyridazin-4-yl]oxy]ethyl)phenyl]formamido]-N-([4-[(3-chloro-1H-indol-7-yl)sulfamoyl]phenyl]methyl)heptanamide] | > 1 | < 50 | C (“C” indicates maximum degradation <50%) | > 1 |
| Nc1nnc(-c2ccccc2O)cc1OCCc1ccc(C(=O)NCCCCCC(=O)NCc2ccc(S(=O)(=O)Nc3cccc4c(Cl)c[nH]c34)cc2)cc1 [Compound 14, 6-[[4-(2-[[3-amino-6-(2-hydroxyphenyl)pyridazin-4-yl]oxy]ethyl)phenyl]formamido]-N-([4-[(3-chloro-1H-indol-7-yl)sulfamoyl]phenyl]methyl)hexanamide] | > 1 | < 50 | C (“C” indicates maximum degradation <50%) | > 1 |
| Nc1nnc(-c2ccccc2O)cc1OCCc1ccc(C(=O)NCCCCC(=O)NCc2ccc(S(=O)(=O)Nc3cccc4c(Cl)c[nH]c34)cc2)cc1 [Compound 15, 4-(2-((3-amino-6-(2-hydroxyphenyl)pyridazin-4-yl)oxy)ethyl)-N-(5-((4-(N-(3-chloro-1H-indol-7-yl)sulfamoyl)benzyl)amino)-5-oxopentyl)benzamide] | > 1 | < 50 | C (“C” indicates maximum degradation <50%) | > 1 |
| Nc1nnc(-c2ccccc2O)cc1OCCc1ccc(C(=O)NCCCC(=O)NCc2ccc(S(=O)(=O)Nc3cccc4c(Cl)c[nH]c34)cc2)cc1 [Compound 16, 4-[[4-(2-[[3-amino-6-(2-hydroxyphenyl)pyridazin-4-yl]oxy]ethyl)phenyl]formamido]-N-([4-[(3-chloro-1H-indol-7-yl)sulfamoyl]phenyl]methyl)butanamide] | > 1 | < 50 | C (“C” indicates maximum degradation <50%) | > 1 |
| Nc1nnc(-c2ccccc2O)cc1OCCc1ccc(C(=O)NCCC(=O)NCc2ccc(S(=O)(=O)Nc3cccc4c(Cl)c[nH]c34)cc2)cc1 [Compound 17, 3-[[4-(2-[[3-amino-6-(2-hydroxyphenyl)pyridazin-4-yl]oxy]ethyl)phenyl]formamido]-N-([4-[(3-chloro-1H-indol-7-yl)sulfamoyl]phenyl]methyl)propanamide] | > 1 | < 50 | C (“C” indicates maximum degradation <50%) | > 1 |
| Nc1nnc(-c2ccccc2O)cc1OCCc1ccc(C(=O)NCC(=O)NCc2ccc(S(=O)(=O)Nc3cccc4c(Cl)c[nH]c34)cc2)cc1 [Compound 18, 2-[[4-(2-[[3-amino-6-(2-hydroxyphenyl)pyridazin-4-yl]oxy]ethyl)phenyl]formamido]-N-([4-[(3-chloro-1H-indol-7-yl)sulfamoyl]phenyl]methyl)acetamide] | > 1 | < 50 | C (“C” indicates maximum degradation <50%) | > 1 |
| Nc1nnc(-c2ccccc2O)cc1OCCc1ccc(CNC(=O)C2CCN(CCOc3ccc4c(c3)C(=O)N(C3CCC(=O)NC3=O)C4=O)CC2)cc1 (stereo not shown) [Compound 19, N-(4-(2-((3-amino-6-(2-hydroxyphenyl)pyridazin-4-yl)oxy)ethyl)benzyl)-1-(2-((2-(2,6-dioxopiperidin-3-yl)-1,3-dioxoisoindolin-5-yl)oxy)ethyl)piperidine-4-carboxamide] | > 1 | < 50 | C (“C” indicates maximum degradation <50%) | > 1 |
| Cc1ncsc1-c1ccc(CNC(=O)[C@@H]2C[C@@H](O)CN2C(=O)[C@@H](NC(=O)CCCCCCCCCNC(=O)c2ccc(CCN(C)c3cc(-c4ccccc4O)nnc3N)cc2)C(C)(C)C)cc1 [Compound 20, (2S,4R)-1-[(2S)-2-(10-[[4-(2-[[3-amino-6-(2-hydroxyphenyl)pyridazin-4-yl](methyl)amino]ethyl)phenyl]formamido]decanamido)-3,3-dimethylbutanoyl]-4-hydroxy-N-[[4-(4-methyl-1,3-thiazol-5-yl)phenyl]methyl]pyrrolidine-2-carboxamide] | > 0.1 | > 75 | A (“A” indicates maximum degradation ≥75%) | > 0.01 |
| Nc1nnc(-c2ccccc2O)cc1OCCc1ccc(C(=O)NCCCCCOc2cccc3c2C(=O)N(C2CCC(=O)NC2=O)C3=O)cc1 (stereo not shown) [Compound 21, 4-(2-[[3-amino-6-(2-hydroxyphenyl)pyridazin-4-yl]oxy]ethyl)-N-(5-[[2-(2,6-dioxopiperidin-3-yl)-1,3-dioxoisoindol-4-yl]oxy]pentyl)benzamide] | > 1 | < 50 | B (“B” indicates maximum degradation ≥50%) | > 0.1 |
| Nc1nnc(-c2ccccc2O)cc1OCCc1ccc(C(=O)NCCCCCCCCCCCC(=O)NCc2ccc(S(=O)(=O)Nc3cccc4c(Cl)c[nH]c34)cc2)cc1 [Compound 22, 12-[[4-(2-[[3-amino-6-(2-hydroxyphenyl)pyridazin-4-yl]oxy]ethyl)phenyl]formamido]-N-([4-[(3-chloro-1H-indol-7-yl)sulfamoyl]phenyl]methyl)dodecanamide] | > 1 | < 50 | C (“C” indicates maximum degradation <50%) | > 1 |
| Nc1nnc(-c2ccccc2O)cc1OCCc1ccc(C(=O)NCCCCCCCCC(=O)NCc2ccc(S(=O)(=O)Nc3cccc4c(Cl)c[nH]c34)cc2)cc1 [Compound 23, 9-[[4-(2-[[3-amino-6-(2-hydroxyphenyl)pyridazin-4-yl]oxy]ethyl)phenyl]formamido]-N-([4-[(3-chloro-1H-indol-7-yl)sulfamoyl]phenyl]methyl)nonanamide] | > 1 | < 50 | C (“C” indicates maximum degradation <50%) | > 1 |
| Cc1ncsc1-c1ccc(CNC(=O)[C@@H]2C[C@@H](O)CN2C(=O)[C@@H](NC(=O)CCCOCCOCCNC(=O)c2ccc(CCOc3cc(-c4ccccc4O)nnc3N)cc2)C(C)(C)C)cc1 [Compound 24, (2S,4R)-1-[(2S)-2-[4-[2-(2-[[4-(2-[[3-amino-6-(2-hydroxyphenyl)pyridazin-4-yl]oxy]ethyl)phenyl]formamido]ethoxy)ethoxy]butanamido]-3,3-dimethylbutanoyl]-4-hydroxy-N-[[4-(4-methyl-1,3-thiazol-5-yl)phenyl]methyl]pyrrolidine-2-carboxamide] | > 1 | < 50 | C (“C” indicates maximum degradation <50%) | > 1 |
| Nc1nnc(-c2ccccc2O)cc1OCCc1ccc(C(=O)NCCCCCCCC(=O)NCc2ccc(S(=O)(=O)Nc3cccc4c(Cl)c[nH]c34)cc2)cc1 [Compound 25, 8-[[4-(2-[[3-amino-6-(2-hydroxyphenyl)pyridazin-4-yl]oxy]ethyl)phenyl]formamido]-N-([4-[(3-chloro-1H-indol-7-yl)sulfamoyl]phenyl]methyl)octanamide] | > 1 | < 50 | C (“C” indicates maximum degradation <50%) | > 1 |
| Cc1ncsc1-c1ccc(CNC(=O)[C@@H]2C[C@@H](O)CN2C(=O)[C@@H](NC(=O)CCCCCCCCCNCc2ccc(CCOc3cc(-c4ccccc4O)nnc3N)cc2)C(C)(C)C)cc1 [Compound 26, (2S,4R)-1-((S)-2-(10-((4-(2-((3-amino-6-(2-hydroxyphenyl)pyridazin-4-yl)oxy)ethyl)benzyl)amino)decanamido)-3,3-dimethylbutanoyl)-4-hydroxy-N-(4-(4-methylthiazol-5-yl)benzyl)pyrrolidine-2-carboxamide] | > 1 | < 50 | A (“A” indicates maximum degradation ≥75%) | > 0.1 |
